{"source": "ChEMBL document CHEMBL1138879", "about": "(J Med Chem, 2006)", "key": {"in vivo [1]": {"experiment": "in vivo", "conditions": "mouse, iv, 1 mg/kg"}, "in vivo [2]": {"experiment": "in vivo", "conditions": "dog, plasma, po, 10 mg/kg"}, "in vivo [3]": {"experiment": "in vivo", "conditions": "dog, po, 10 mg/kg"}, "in vivo [4]": {"experiment": "in vivo", "conditions": "mouse, plasma, po, 1 mg/kg"}, "in vivo [5]": {"experiment": "in vivo", "conditions": "dog, po, 10 mg/kg", "remark": "listed apart in the source"}, "in vivo [6]": {"experiment": "in vivo", "conditions": "dog, iv, 5 mg/kg"}, "in vivo [7]": {"experiment": "in vivo", "conditions": "mouse, iv, 1 mg/kg", "remark": "listed apart in the source"}, "in vivo [8]": {"experiment": "in vivo", "conditions": "dog, iv, 5 mg/kg", "remark": "listed apart in the source"}, "in vivo [9]": {"experiment": "in vivo", "conditions": "dog, iv, 5 mg/kg", "remark": "listed apart in the source"}, "in vivo [10]": {"experiment": "in vivo", "conditions": "dog, iv, 5 mg/kg", "remark": "listed apart in the source"}, "hERG (KCNH2)": {"target": "hERG (KCNH2) (Homo sapiens, UniProt Q12809)", "sequence (Q12809 whole entry)": "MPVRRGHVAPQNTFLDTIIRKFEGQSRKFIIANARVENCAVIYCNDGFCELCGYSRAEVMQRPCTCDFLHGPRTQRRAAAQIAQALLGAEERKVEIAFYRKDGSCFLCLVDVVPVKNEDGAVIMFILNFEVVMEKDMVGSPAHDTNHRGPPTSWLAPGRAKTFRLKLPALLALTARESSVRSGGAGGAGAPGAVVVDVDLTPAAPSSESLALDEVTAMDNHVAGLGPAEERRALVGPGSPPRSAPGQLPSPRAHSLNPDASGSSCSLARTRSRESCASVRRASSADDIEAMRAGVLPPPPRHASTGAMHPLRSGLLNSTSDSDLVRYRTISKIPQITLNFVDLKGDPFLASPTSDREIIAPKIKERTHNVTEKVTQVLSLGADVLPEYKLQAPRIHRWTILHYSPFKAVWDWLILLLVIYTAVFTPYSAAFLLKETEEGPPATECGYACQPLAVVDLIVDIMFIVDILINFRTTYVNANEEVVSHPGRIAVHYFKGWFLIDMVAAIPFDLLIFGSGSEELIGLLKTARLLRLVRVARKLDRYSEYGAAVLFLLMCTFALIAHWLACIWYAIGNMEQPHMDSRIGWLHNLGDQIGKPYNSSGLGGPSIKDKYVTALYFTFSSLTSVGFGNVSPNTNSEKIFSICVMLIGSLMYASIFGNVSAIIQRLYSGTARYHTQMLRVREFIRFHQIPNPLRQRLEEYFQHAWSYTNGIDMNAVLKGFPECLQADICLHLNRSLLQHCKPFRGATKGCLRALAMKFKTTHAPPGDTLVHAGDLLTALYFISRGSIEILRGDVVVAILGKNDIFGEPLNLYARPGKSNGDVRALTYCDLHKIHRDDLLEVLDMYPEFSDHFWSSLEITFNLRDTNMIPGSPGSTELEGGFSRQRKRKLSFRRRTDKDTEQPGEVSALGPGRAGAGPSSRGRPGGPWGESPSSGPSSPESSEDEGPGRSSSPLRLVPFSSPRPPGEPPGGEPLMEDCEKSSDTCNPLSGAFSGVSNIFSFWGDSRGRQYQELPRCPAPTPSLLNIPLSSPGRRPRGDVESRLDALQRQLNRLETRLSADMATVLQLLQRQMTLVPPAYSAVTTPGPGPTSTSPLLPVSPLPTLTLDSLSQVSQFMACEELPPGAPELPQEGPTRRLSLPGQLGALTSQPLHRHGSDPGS", "experiment": "in vitro"}, "in vivo [11]": {"experiment": "in vivo", "conditions": "mouse, iv, 1 mg/kg", "remark": "listed apart in the source"}, "in vivo [12]": {"experiment": "in vivo", "conditions": "dog, po, 10 mg/kg", "remark": "listed apart in the source"}, "in vivo [13]": {"experiment": "in vivo", "conditions": "mouse, po, 1 mg/kg"}, "in vivo [14]": {"experiment": "in vivo", "conditions": "mouse, po, 1 mg/kg", "remark": "listed apart in the source"}, "in vivo [15]": {"experiment": "in vivo", "conditions": "mouse, po, 1 mg/kg", "remark": "listed apart in the source"}, "in vivo [16]": {"experiment": "in vivo", "conditions": "mouse, iv, 1 mg/kg", "remark": "listed apart in the source"}, "PBMC": {"test_system": "PBMC", "experiment": "cells", "conditions": "Homo sapiens"}}}
{"compound": "CN1C(=O)N(c2cc(Cl)cc(Cl)c2)C(=O)[C@]12CN(Cc1cc(C(=O)O)cs1)C[C@H]2c1ccc(C#N)cc1", "values": [{"measurement": "clearance", "setting": "in vivo [1]", "value": 32, "unit": "mL/min/kg"}, {"measurement": "AUC", "setting": "in vivo [2]", "value": 115, "unit": "µM·h"}, {"measurement": "Cmax", "setting": "in vivo [3]", "value": 18.9, "unit": "µM"}, {"measurement": "AUC", "setting": "in vivo [4]", "value": 0.306, "unit": "µM·h"}, {"measurement": "bioavailability", "setting": "in vivo [5]", "value": 100, "unit": "%"}, {"measurement": "half-life", "setting": "in vivo [6]", "value": 3.5, "unit": "h"}, {"measurement": "MRT", "setting": "in vivo [7]", "value": 4.4, "unit": "h"}, {"measurement": "clearance", "setting": "in vivo [8]", "value": 3.6, "unit": "mL/min/kg"}, {"measurement": "Vd", "setting": "in vivo [9]", "value": 0.7, "unit": "L/kg"}, {"measurement": "MRT", "setting": "in vivo [10]", "value": 3.3, "unit": "h"}, {"measurement": "inhibition at 30 µM", "setting": "hERG (KCNH2)", "value": 24, "unit": "%"}, {"measurement": "half-life", "setting": "in vivo [11]", "value": 5.4, "unit": "h"}, {"measurement": "Tmax", "setting": "in vivo [12]", "value": 2, "unit": "h"}, {"measurement": "bioavailability", "setting": "in vivo [13]", "value": 41, "unit": "%"}, {"measurement": "Tmax", "setting": "in vivo [14]", "value": 0.25, "unit": "h"}, {"measurement": "Cmax", "setting": "in vivo [15]", "value": 0.083, "unit": "µM"}, {"measurement": "Vd", "setting": "in vivo [16]", "value": 8.5, "unit": "L/kg"}, {"measurement": "IC50", "setting": "PBMC", "value": 0.28, "unit": "µM"}]}
